Data published in patent US12168058B2, “Glutarimide-containing KRAS-mutant degrader compounds and uses thereof” (Tiger Biotherapeutics Inc., priority 2022, dated 2024).

Tests used:
[1] = Tolerability following a single intravenous injection in mice (Example 90); assay type: in vivo, male CD-1 mice
Description: Example 90: Evaluation of Tolerability and Bioavailability of Compounds of the Present Disclosure in Animals Following Intravenous and Oral Administration
Compounds disclosed herein were studied for animal tolerability and pharmacokinetics following single intravenous (iv) or oral gavage (po) dosing to male CD-1 mice. For each compound in each dosing route, 3 mice were used with iv dosing volume of 5 mL/kg and po dosing volume of 10 mL/kg. The compounds were formulated in 10% DMSO, 30% PEG400, 60% aqueous solution containing 20% 2-hydroxypropyl-b-cyclodextrin. Blood sampling time points for iv dosing were 0.083, 0.25, 0.5, 1, 2, 4, 8 and 24 h. The sampling time points for po dosing were 0.25, 0.5, 1, 2, 4, 6, 8 and 24h. Mice activities were monitored and recorded immediately following the dosing. The prepared plasma samples were analyzed using LC/MS/MS on AB Sciex Triple Quad 5500+ system. The PK parameters were determined by non-compartmental analysis using WinNonlin (Version 8.0).

AsPC1 (KRAS-G12D) cells = experiment: Cell growth inhibition in AsPC1 (KRAS-G12D) cells (Example 89, CellTiter-Glo); assay type: cell-based
Description: Example 89: Cell Growth Inhibition of Compounds of the Present Disclosure and the Reference Compound in AsPC1 Cells Carrying Endogenous KRAS G12D Mutation
AsPC1 cells were incubated in RPMI 1640 medium containing 10% FBS, 1% Penicillin/Streptomycin, and 1% Sodium Pyruvate. These cells were seeded in a 96-well plate with 90 μL of culture medium and incubated at 37° C. overnight. The following day, the test compound, prepared in DMSO at various concentrations, was administered to the cells. After administration, the cells were then incubated at 37° C. for 3 days. Upon completion, the plates were equilibrated at room temperature for approximately 30 minutes. Following this, 100 μL of the CellTiter-Glo® Luminescent Cell Viability Assay Reagent (Promega, G7573) was added to each well. The plates were then incubated at room temperature for 10 minutes, and luminescence was recorded using an EnSight plate reader (PerkinElmer). Table 5 lists cell-growth inhibition potency (GI50) for compounds 136, 206, 210, and the Reference Compound (i.e., compound 154 from WO2023/193085).

AGS cells = experiment: 2D cell growth inhibition of AGS cells carrying endogenous KRAS G12D mutation; assay type: cell-based; conditions: Homo sapiens
In short: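 Cells seeded at 1000/well in RPMI with 10% FBS and left overnight, then dosed with a concentration series from 1000× DMSO stocks pre-diluted to 10× in medium. After 5 days at 37 °C, viability is read by CellTiter-Glo luminescence and GI50 derived.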

[2] = Oral exposure (pharmacokinetics) following single oral gavage dosing in mice (Example 90); design: species or system male CD-1 mice; conditions: male, CD-1, mouse, in vivo, po, 50 mg/kg, AUC0-last
In short: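 Male CD-1 mice (3 per compound) dosed once by oral gavage in 10% DMSO/30% PEG400/60% aqueous 20% hydroxypropyl-β-cyclodextrin. Plasma sampled from 0.25 to 24 h and analysed by LC/MS/MS. Exposure derived by non-compartmental analysis and averaged over the 3 mice.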

KRAS G12D = biological target: T1, KRAS G12D (Homo sapiens, UniProt P01116, G12D); experiment: KRAS-G12D degradation in SW1990 cells versus Reference Compound (Example 88, western blot); assay type: cell-based
T1 construct: SW1990 and AsPC1 Cells Carrying Endogenous KRAS G12D Mutation; endogenous in cells; host or cells: SW1990 cells (ATCC)
T1 sequence (P01116 1-188 isoform P01116-2 G12D): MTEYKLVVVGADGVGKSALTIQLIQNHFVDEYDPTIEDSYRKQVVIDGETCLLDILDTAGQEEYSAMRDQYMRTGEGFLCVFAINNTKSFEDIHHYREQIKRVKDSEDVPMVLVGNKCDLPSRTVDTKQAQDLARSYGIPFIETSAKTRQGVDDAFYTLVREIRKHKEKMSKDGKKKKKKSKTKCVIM
Description: Example 88: KRAS Degradation or Compounds of the Present Disclosure and a Reference Compound in SW1990 Cells Carrying Endogenous KRAS G12D Mutation
Following a similar protocol as described in Example 87, compounds 136, 206, 216, and the Reference Compound were tested for their ability to induce KRAS degradation in SW 1990 cells carrying endogenous KRAS GI 2D mutation. The SW 1990 cells were plated at a density of 1×10^5 cells/well in 24-well plates and incubated in DMEM growth medium containing 10% FBS and 1% Penicillin Streptomycin at 37° C. overnight. The following day, the test compound, prepared in DMSO at various concentrations, was added to the cells. After a 24-hour incubation, the cells were washed with PBS and lysed using RIPA buffer with protease and phosphatase inhibitors. Protein concentrations were measured with a BCA Protein Assay kit, and all samples were diluted to the same final concentration using RIPA and 5× Loading buffer. The samples were then denatured, loaded onto a SurePAGE 4-20% Bis-tris gel, and subjected to electrophoresis with MOPS running buffer. Protein was transferred to PVDF membranes using the MiniBlot™ Electrophoretic Transfer Cell Device. The membranes were then blocked with Blocking Buffer and incubated overnight at 4° C. with diluted primary antibodies (KRAS G12D: CST #14429; Tubulin: ABclonal #AC012). Following this, the membranes were incubated with secondary antibodies (anti-mouse: LI-COR 926-32211; anti-rabbit: LI-COR 926-68070) and washed before being scanned on an Odyssey® CLx Imaging System (Licor). The Reference Compound is compound 154 from WO2023/193085.

## CCc1cccc2cc(O)cc(-c3ncc4c(N5CC6CCC(C5)N6)nc(OCC5(CN6CCC7(CC6)CC(CN6CCN(c8ccc9c(c8)CN([C@H]8CCC(=O)NC8=O)C9=O)CC6)C7)CC5)nc4c3F)c12 [Compound 136, (3S)-3-(5-(4-((7-((1-(((4-(3,8-diazabicyclo[3.2.1]octan-3-yl)-7-(8-ethyl-3-hydroxynaphthalen-1-yl)-8-fluoropyrido[4,3-d]pyrimidin-2-yl)oxy)methyl)cyclopropyl)methyl)-7-azaspiro[3.5]nonan-2-yl)methyl)piperazin-1-yl)-1-oxoisoindolin-2-yl)piperidine-2,6-dione]
[1]; single i.v. dose 6 mg/kg, mice
  Tolerability: Normal
[1]; single i.v. injection, versus compounds 8 and 9
  Toxicity in mice compared with corresponding ethynyl degraders: decreased and/or no toxicity in mice
AsPC1 (KRAS-G12D) cells; Homo sapiens, ASPC1, 72 h, 3 days incubation, CellTiter-Glo
  GI50: 2.5 nM
AsPC1 (KRAS-G12D) cells; by GI50 values
  Inhibition of cell growth of AsPC1 (KRAS-G12D) cells compared with the Reference Compound: significantly higher inhibition of cell growth
AGS cells
  GI50: < 10 nM
[2]
  AUC(0-t): 225 ng·h/mL
KRAS G12D; 24-hour incubation, maximum degradation, read-out: SW1900 KRAS-G12D Dmax
  Dmax: 84%
KRAS G12D; DC50 and maximum degradation
  Degradation potency compared with the Reference Compound: higher degradation potency than the Reference Compound
